Laboratory results from patent US9120814B2, “Compounds with embedded benzopyran motif for core structures and preparation method thereof” (SNU R&DB FOUNDATION, priority 2006, dated 2015).

Key:
[1] = target: T1, RAR-related orphan receptor α (RORα) (Homo sapiens, UniProt P35398); test: Agonistic effect on RORα
T1 sequence (P35398 1-523): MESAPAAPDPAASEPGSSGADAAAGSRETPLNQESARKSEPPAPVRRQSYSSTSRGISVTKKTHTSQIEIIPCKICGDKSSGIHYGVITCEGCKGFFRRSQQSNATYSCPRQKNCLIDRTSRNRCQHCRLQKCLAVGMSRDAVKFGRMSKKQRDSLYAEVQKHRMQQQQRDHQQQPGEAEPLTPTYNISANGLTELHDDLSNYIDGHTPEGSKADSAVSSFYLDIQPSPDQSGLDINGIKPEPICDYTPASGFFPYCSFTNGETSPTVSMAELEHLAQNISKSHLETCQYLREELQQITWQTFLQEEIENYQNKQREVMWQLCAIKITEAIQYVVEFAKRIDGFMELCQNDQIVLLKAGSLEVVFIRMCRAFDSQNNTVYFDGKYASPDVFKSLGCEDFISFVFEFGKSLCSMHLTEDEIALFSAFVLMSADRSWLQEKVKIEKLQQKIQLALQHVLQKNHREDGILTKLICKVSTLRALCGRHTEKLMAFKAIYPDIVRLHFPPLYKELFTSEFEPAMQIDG

Hela adenocarcinoma cell = test: Cell viability, CCK-8 assay, Hela; format: cell-based; settings: Homo sapiens; Hela cells, 72 hr treatment; read-out: IC50 (after 72 hr treatment) Hela
Description: (§1) The human cancer cell line (A549 lung carcinoma cell, Hela adenocarcinoma cell, U266 myeloma cell) was obtained from American Type Culture Collection (Manassas, Va. USA) and maintained in complete medium [RPMI. 1640 supplemented with heat-inactivated 10% FBS (USP, Austin, Tex., USA) and with 1% antibiotic-antimycotic solution (USP, Austin, Tex., USA)]. The cells were maintained in a humidified atmosphere of 5% CO2 and 95% air at 37° C., and cultured in T75 Flask (Nalge Nune International, Naperville, Ind., USA).
(§2) Cell viability was measured by a cell counting kit (CCK-8 assay, Dojindo, Tokyo, Japan), and the experimental procedure is based on the manufacturer's manual. The cells were cultured into 96-well plates at a density of 2×10^4 cells/well for 24 hours, followed by the treatment of the compounds of the present invention at various concentrations. […] Louis, Mo., USA)) was added to each well, and plates were incubated for additional 2 hours at 37° C. The absorbance of each well at 450 nm was measured with a reference at 630 nm using a Bio-Tek model ELx800™ microplate reader (Bio-Tek Instruments, Inc., Winooski, Vt., USA). The percentage of cell viability was calculated by following Mathematical Equation 1. […]

U266 myeloma cell = test: Cell viability, CCK-8 assay, U266; format: cell-based; settings: Homo sapiens, U-266; U266 cells, 72 hr treatment; read-out: IC50 (after 72 hr treatment) U266
Description: as §1, §2

A549 lung carcinoma cell = test: Cell viability, CCK-8 assay, A549; format: cell-based; settings: Homo sapiens; A549 cells, 72 hr treatment; read-out: IC50 (after 72 hr treatment) A549
Description: as §1, §2

[2] = test system: prostate specific antigen (PSA) as a target protein of androgen receptor; test: Western blot of PSA expression in LNCaP cells (FIG. 1); format: cell-based; settings: LNCaP androgen-dependent human prostate cancer cell line; compared with bicalutamide
[3] = test system: androgen receptor (AR) target gene; test: RT-PCR of androgen receptor target gene mRNA (FIG. 2); format: cell-based

| SMILES | agonistic effect of activating RORα [1] | IC50 (Hela adenocarcinoma cell) [nM] | IC50 (U266 myeloma cell) [nM] | IC50 (A549 lung carcinoma cell) [nM] | anticancer activity based on the expression amount of PSA (western blot) [2] | mRNA amount of NK3 transcription factor related, locus 1 (NKX3-1) [3] | mRNA amount of kallikrein-related peptidase 2 (KLK2) [3] | mRNA amount of prostate specific antigen (PSA) [3] |
| --- | --- | --- | --- | --- | --- | --- | --- | --- |
| COc1ccc2c(c1O)OC(C)(C)C=C2c1ccc(Cl)cc1C [Compound 95] | agonistic effect | 450 | 460 | 380 | – | – | – | – |
| O=C1C2C3=C(c4ccc(O)cc4OC34CCCC4)[C@@H](O)[C@H](c3ccccc3)C2C(=O)N1Cc1ccccc1 (some centres unmarked) [Compound 96] | – | – | – | – | almost analogous to that of bicalutamide | decreasing | decreasing | decreasing |
